Values quoted from earlier work, collected in patent US20230277473A1 (priority 2023, published 2023).

Columns and labels:
[1] = in vivo

half-life [1] [h]	Compound	solubility in water
21	Cc1nc2n(c(=O)c1CCN1CCC(c3noc4cc(F)ccc34)CC1)CCCC2O (centres unmarked) [9-hydroxyrisperidone]	
	Cc1nc2n(c(=O)c1CCN1CCC(c3noc4cc(F)ccc34)CC1)CCCC2 [RPD, risperidone]	almost insoluble in water
